# Source: ChEMBL document CHEMBL6182909 (J Med Chem, 2025)
# Active and inactive are the calls of the source. No cut-off for these calls is given here.
# Legend:
# [1] = Half life in dog at 2 mg/kg, iv; type: ADME, organism-based, Canis lupus familiaris; settings: in vivo
# [2] = Clearance in rat at 2 mg/kg, iv; type: ADME, organism-based; settings: in vivo
# [3] = AUC (0 to infinity) in dog at 5 mg/kg, po; type: ADME, organism-based, Canis lupus familiaris; settings: in vivo
# [4] = Renal clearance in rat at 2 mg/kg, iv; type: ADME, organism-based; settings: in vivo
# [5] = Unbound fraction in brain of fasted male Sprague-Dawley rat at 10 mg/kg, po; type: ADME, organism-based; settings: in vivo
# [6] = Water solubility of compound; type: physicochemical; settings: buffer
# [7] = Basicity constant, pKa of compound; type: physicochemical
# [8] = Cmax in Cynomolgus monkey at 5 mg/kg, po; type: ADME, organism-based, Macaca fascicularis; settings: in vivo
# [9] = Unbound fraction in plasma of fasted male Sprague-Dawley rat at 10 mg/kg, po; type: ADME, organism-based
# [10] = Half life in rat at 5 mg/kg, po; type: ADME, organism-based; settings: in vivo
# [11] = Half life in mouse at 5 mg/kg, po; type: ADME, organism-based; settings: in vivo
# [12] = AUC (0 to infinity) in rat at 2 mg/kg, iv; type: ADME, organism-based; settings: in vivo
# [13] = Volume of distribution at steady state in dog at 2 mg/kg, iv; type: ADME, organism-based, Canis lupus familiaris; settings: in vivo, read-out: Vdss
# [14] = test system: Rattus norvegicus; experiment: Hypophagic effect in fasted male Sprague-Dawley rat assessed as effective dose administered orally measured after 1 hr relative to control; type: functional; settings: route po
# [15] = Tmax in dog at 5 mg/kg, po; type: ADME, organism-based, Canis lupus familiaris; settings: in vivo
# [16] = Half life in dog at 5 mg/kg, po; type: ADME, organism-based, Canis lupus familiaris; settings: in vivo
# [17] = Cmax in dog at 5 mg/kg, po; type: ADME, organism-based, Canis lupus familiaris; settings: in vivo
# [18] = AUC (0 to infinity) in mouse at 5 mg/kg, po; type: ADME, organism-based; settings: in vivo
# [19] = Stability in hepatocytes (unknown origin); type: ADME, cell-based, Hepatocyte
# [20] = Volume of distribution at steady state in mouse at 2 mg/kg, iv; type: ADME, organism-based; settings: in vivo, read-out: Vdss
# [21] = AUC (0 to infinity) in dog at 2 mg/kg, iv; type: ADME, organism-based, Canis lupus familiaris; settings: in vivo
# [22] = test system: Rattus norvegicus; experiment: Hypophagic effect in fasted male Sprague-Dawley rat assessed as inhibition of food intake at 10 mg/kg, po measured after 1 hr relative to control; type: functional; settings: Rattus norvegicus, Sprague-Dawley, po
# [23] = AUC (0 to infinity) in Cynomolgus monkey at 2 mg/kg, iv; type: ADME, organism-based, Macaca fascicularis; settings: in vivo
# [24] = Volume of distribution at steady state in Cynomolgus monkey at 2 mg/kg, iv; type: ADME, organism-based, Macaca fascicularis; settings: in vivo, read-out: Vdss
# [25] = Oral bioavailability in dog at 5 mg/kg; type: ADME, organism-based, Canis lupus familiaris; settings: in vivo
# [26] = Oral bioavailability in Cynomolgus monkey at 5 mg/kg; type: ADME, organism-based, Macaca fascicularis; settings: in vivo
# [27] = Half life in mouse at 2 mg/kg, iv; type: ADME, organism-based; settings: in vivo
# [28] = Volume of distribution at steady state in rat at 2 mg/kg, iv; type: ADME, organism-based; settings: in vivo, read-out: Vdss
# [29] = Cmax in mouse at 5 mg/kg, po; type: ADME, organism-based; settings: in vivo
# [30] = Renal clearance in Cynomolgus monkey at 2 mg/kg, iv; type: ADME, organism-based, Macaca fascicularis; settings: in vivo
# [31] = Tmax in Cynomolgus monkey at 5 mg/kg, po; type: ADME, organism-based, Macaca fascicularis; settings: in vivo
# [32] = Cmax in rat at 5 mg/kg, po; type: ADME, organism-based; settings: in vivo
# [33] = Tmax in rat at 5 mg/kg, po; type: ADME, organism-based; settings: in vivo
# [34] = Half life in rat at 2 mg/kg, iv; type: ADME, organism-based; settings: in vivo
# [35] = Renal clearance in dog at 2 mg/kg, iv; type: ADME, organism-based, Canis lupus familiaris; settings: in vivo
# [36] = Stability in microsomes (unknown origin); type: ADME, Microsome
# [37] = test system: Rattus norvegicus; experiment: Hypophagic effect in fasted male Sprague-Dawley rat at 10 mg/kg, po measured after 1 hr in presence of SB242084; type: functional, organism-based
# [38] = AUC (0 to infinity) in rat at 5 mg/kg, po; type: ADME, organism-based; settings: in vivo
# [39] = AUC (0 to infinity) in mouse at 2 mg/kg, iv; type: ADME, organism-based; settings: in vivo
# [40] = Tmax in mouse at 5 mg/kg, po; type: ADME, organism-based; settings: in vivo
# [41] = Half life in Cynomolgus monkey at 5 mg/kg, po; type: ADME, organism-based, Macaca fascicularis; settings: in vivo
# [42] = Clearance in mouse at 2 mg/kg, iv; type: ADME, organism-based; settings: in vivo
# [43] = AUC (0 to infinity) in Cynomolgus monkey at 5 mg/kg, po; type: ADME, organism-based, Macaca fascicularis; settings: in vivo
# [44] = Clearance in dog at 2 mg/kg, iv; type: ADME, organism-based, Canis lupus familiaris; settings: in vivo
# [45] = Half life in Cynomolgus monkey at 2 mg/kg, iv; type: ADME, organism-based, Macaca fascicularis; settings: in vivo
# [46] = Oral bioavailability in mouse at 5 mg/kg; type: ADME, organism-based; settings: in vivo
# [47] = Clearance in Cynomolgus monkey at 2 mg/kg, iv; type: ADME, organism-based, Macaca fascicularis; settings: in vivo
# [48] = Drug concentration in plasma of fasted male Sprague-Dawley rat assessed as inhibition of food intake at 10 mg/kg, po measured after 1 hr relative to control; type: organism-based
# [49] = test system: Rattus norvegicus; experiment: Hypophagic effect in fasted male Sprague-Dawley rat assessed as inhibition of food intake at 5 mg/kg, po measured after 1 hr relative to control; type: functional
# [50] = Drug concentration in brain of fasted male Sprague-Dawley rat assessed as inhibition of food intake at 10 mg/kg, po measured after 1 hr relative to control; type: organism-based; settings: read-out: Ct
# [51] = Oral bioavailability in rat at 5 mg/kg; type: ADME, organism-based; settings: in vivo
smiles,measurement,setting,value
CNC(=O)c1ccc2c3c1CCN3CCNC2,half-life,[1],1.38 h
same,clearance,[2],44.3 mL/min/kg
same,AUC(0-inf),[3],4130 ng·h/mL
same,CL renal,[4],24 mL/min/kg
same,Fu,[5],75%
same,solubility,[6],91 mg/mL
same,pKa,[7],7.93
same,Cmax,[8],700 ng/mL
same,fraction unbound,[9],0.87
same,half-life,[10],1.51 h
same,half-life,[11],0.6 h
same,AUC(0-inf),[12],770 ng·h/mL
same,Vd,[13],1.41 L/kg
same,ED50,[14],6.4 mg/kg
same,Tmax,[15],0.92 h
same,half-life,[16],1.9 h
same,Cmax,[17],1820 ng/mL
same,AUC(0-inf),[18],720 ng·h/mL
same,Stability,[19],Stable
same,Vd,[20],2.44 L/kg
same,AUC(0-inf),[21],1830 ng·h/mL
same,inhibition in vivo at 10 mg/kg,[22],87%
same,AUC(0-inf),[23],2000 ng·h/mL
same,Vd,[24],1.8 L/kg
same,bioavailability,[25],90.2%
same,bioavailability,[26],71.2%
same,half-life,[27],0.41 h
same,Vd,[28],1.89 L/kg
same,Cmax,[29],940 ng/mL
same,CL,"[30]; iv, 2 mg/kg",4.5 mL/min/kg
same,Tmax,[31],2.33 h
same,Cmax,[32],570 ng/mL
same,Tmax,[33],0.58 h
same,half-life,[34],0.56 h
same,CL renal,[35],1.17 mL/min/kg
same,Stability,[36],Stable
same,Activity,[37],inactive
same,AUC(0-inf),[38],2020 ng·h/mL
same,AUC(0-inf),[39],340 ng·h/mL
same,Tmax,[40],0.25 h
same,half-life,[41],2.07 h
same,clearance,[42],99 mL/min/kg
same,AUC(0-inf),[43],3580 ng·h/mL
same,clearance,[44],18.3 mL/min/kg
same,half-life,[45],1.49 h
same,bioavailability,[46],85.6%
same,clearance,[47],16.7 mL/min/kg
C[C@H]1CN2CCNCc3ccc(C(=O)NCC(F)F)c1c32 [BEXICASERIN],half-life,[1],1.3 h
same,clearance,[2],58.5 mL/min/kg
same,AUC(0-inf),[3],3920 ng·h/mL
same,CL renal,[4],9.65 mL/min/kg
same,concentration at 1 h,[48],960 ng/mL
same,Cmax,[8],430 ng/mL
same,half-life,[10],2.5 h
same,inhibition in vivo at 5 mg/kg,[49],81%
same,half-life,[11],1.5 h
same,AUC(0-inf),[12],577 ng·h/mL
same,Vd,[13],1.85 L/kg
same,ED50,[14],2.8 mg/kg
same,Tmax,[15],0.58 h
same,half-life,[16],4 h
same,Cmax,[17],1590 ng/mL
same,AUC(0-inf),[18],910 ng·h/mL
same,Vd,[20],2.98 L/kg
same,AUC(0-inf),[21],1620 ng·h/mL
same,concentration at 1 h,[50],832 ng/g
same,AUC(0-inf),[23],2970 ng·h/mL
same,Vd,[24],4.36 L/kg
same,bioavailability,[25],97%
same,bioavailability,[26],58%
same,bioavailability,[51],89%
same,half-life,[27],0.66 h
same,Vd,[28],3.69 L/kg
same,Cmax,[29],820 ng/mL
same,CL renal,[30],0.0333 mL/min/kg
same,Tmax,[31],3 h
same,Cmax,[32],450 ng/mL
same,Tmax,[33],0.5 h
same,half-life,[34],1.6 h
same,CL renal,[35],0.00333 mL/min/kg
same,AUC(0-inf),[38],1280 ng·h/mL
same,AUC(0-inf),[39],318 ng·h/mL
same,Tmax,[40],0.25 h
same,half-life,[41],5.52 h
same,clearance,[42],68.8 mL/min/kg
same,AUC(0-inf),[43],4300 ng·h/mL
same,clearance,[44],20.7 mL/min/kg
same,half-life,[45],6.8 h
same,bioavailability,[46],100%
same,clearance,[47],11.5 mL/min/kg
